According to patent US20220274947A1, “NOVEL HETEROARYL-TRIAZOLE COMPOUNDS AS PESTICIDES” (Bayer Aktiengesellschaft, priority 2019, published 2022):

Assays:
Format in all cases: in vivo
Rhipicephalus microplus [1] = test: Rhipicephalus (Boophilus) microplus injection test (BOOPMI Inj); conditions: 168 h, injection into adult engorged female ticks, egg deposition after 7 days, read-out: activity (efficacy: 100% means all eggs are infertile); for pest or weed control at 0.004 mg: application rate 4 μg/tick; for pest or weed control at 0.02 mg: application rate 20 μg/tick
Outline: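 Five engorged adult female R. microplus ticks injected into the abdomen with 1 μL of compound diluted in DMSO, then kept in a climate chamber. Fertile egg deposition checked after 7 days; eggs without visible fertility held until hatching at about 42 days. Efficacy: 100% = all eggs infertile, 0% = all fertile.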

Rhipicephalus microplus [2] = test: Rhipicephalus (Boophilus) microplus in-vitro contact test, larval cattle tick, strain Parkhurst (BOOPMI Cont); conditions: application rate 5 μg/cm^2 (=500 g/ha), tick larvae, after 48 hours, read-out: activity (efficacy: 100% means all larvae are dead or moribund)
Outline: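 Acetone solutions dried onto glass tube walls (900 ppm giving 5 μg/cm^2); 20-50 pyrethroid-resistant Parkhurst larvae added per tube and held 48 h at 27° C., 85% relative humidity. Efficacy scored by negative geotaxis as % dead or moribund larvae.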

Ctenocephalides felis = Ctenocephalides felis in-vitro contact test, adult cat flea (CTECFE Cont); conditions: application rate 5 μg/cm^2 (=500 g/ha), adult cat fleas, after 48 hours, read-out: activity (efficacy: 100% means all fleas are dead or moribund)
Outline: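 Acetone solutions coated on glass tube inner walls (900 ppm giving 5 μg/cm^2), then 5-10 adult fleas added and held 48 h at room temperature. Fleas unable to escape a 45-50° C. heating plate within 5 min scored dead or moribund; efficacy = % dead/moribund.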

Diabrotica balteata = Diabrotica balteata spray test; conditions: 168 h, wheat seeds, larvae, after 7 days, read-out: activity (efficacy: 100% means all seedlings have grown up like in the untreated, uninfected control); for pest or weed control at 32 µg/disc, 100 g/ha: application rate 100 g/ha (=32 μg/well); for pest or weed control at 160 µg/disc, 500 g/ha: application rate 500 g/ha (=160 μg/well)
Outline: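 Wheat seedlings, germinated 1 day on agar, were sprayed with compound in acetone/DMF diluted in water containing emulsifier, then infested with 10-20 Diabrotica balteata larvae. After 7 days efficacy in % was scored: 100% means seedlings grew like the untreated, uninfected control; 0% means none grew.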

Spodoptera frugiperda = Spodoptera frugiperda spray test; conditions: in Zea mays, 168 h, read-out: activity (mortality)
Outline: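 Maize leaf sections were sprayed with compound formulated in acetone/DMF and diluted in water containing 1000 ppm emulsifier. Dried leaves were infested with fall armyworm larvae, and percent mortality was scored after 7 days.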

[3] = test system: Musca domestica strain WHO—N; test: Musca domestica test (MUSCDO surface treatment & contact assay); conditions: exposure 30 minutes, 24 hours after contact, read-out: efficacy (mortality); for mortality at 20 mg/m2: surface concentration 20 mg/m^2, glazed tile; for mortality at 4 mg/m2: surface concentration 4 mg/m^2, glazed tile
Outline: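 Compound dissolved in acetone (2 mg/ml) with 2000 ppm rapeseed oil methyl ester and pipetted onto glazed tile; after acetone evaporation, adult flies exposed to dried surface for 30 minutes. Mortality (%) scored 24 hours after contact.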

Nezara viridula = Nezara viridula spray test; conditions: in Hordeum vulgare, 96 h, barley plants, larvae, after 4 days; for mortality at 500 g/ha: application rate 500 g/ha; for mortality at 100 g/ha: application rate 100 g/ha
Outline: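 Barley plants infested with N. viridula larvae were sprayed with compound in acetone/DMF diluted with water containing 1000 ppm alkylarylpolyglycol ether emulsifier. Mortality (%) was scored after 4 days; 100% means all bugs killed, 0% none.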

SMILES | pest or weed control at 0.004 mg (Rhipicephalus microplus [1]) | pest or weed control at 0.02 mg (Rhipicephalus microplus [1]) | pest or weed control at 5 µg/cm2 (Rhipicephalus microplus [2]) | pest or weed control at 5 µg/cm2 (Ctenocephalides felis) | pest or weed control at 32 µg/disc, 100 g/ha (Diabrotica balteata) | pest or weed control at 160 µg/disc, 500 g/ha (Diabrotica balteata) | mortality at 100 g/ha (Spodoptera frugiperda) | mortality at 500 g/ha (Spodoptera frugiperda) | mortality at 20 mg/m2 [3] | mortality at 500 g/ha (Nezara viridula) | mortality at 4 mg/m2 [3] | mortality at 100 g/ha (Nezara viridula)
CCc1nc([C@H](C)NC(=O)c2cc(C(F)(F)F)cc(C(F)(F)F)c2)n(-c2ccc(C#N)cn2)n1 [I-1] | 100% | 100% | 100% | 90% | 100% | 100% | 100% | 100% | 80 to 100% | – | – | –
CC(C)c1nc([C@H](C)NC(=O)c2cncc(C(F)(F)F)c2)n(-c2ccc(C#N)cn2)n1 [I-30] | 100% | 100% | 100% | 80% | 100% | – | 100% | – | 80 to 100% | – | – | –
C[C@H](NC(=O)c1cccc(Cl)n1)c1ncnn1-c1ccc(C#N)cn1 [II-9] | – | 100% | 80% | – | 100% | 100% | 83% | 100% | 80 to 100% | 100% | – | –
Cc1nc([C@H](C)NC(=O)c2cc(Cl)cc(Cl)c2)n(-c2cc(C#N)ccn2)n1 [II-17] | 100% | 100% | 90% | 100% | 100% | 100% | – | 100% | 80 to 100% | – | 80 to 100% | –
Cc1nc([C@H](C)NC(=O)c2cc(Cl)cc(C(F)(F)F)c2)n(-c2cc(C#N)ccn2)n1 [II-18] | 100% | 100% | 100% | 100% | 100% | 100% | 100% | 100% | 80 to 100% | – | 80 to 100% | –
Cc1nc([C@H](C)NC(=O)c2cc(C(F)(F)F)cc(C(F)(F)F)c2)n(-c2cc(C#N)ccn2)n1 [II-19] | 100% | 100% | 100% | 100% | 100% | 100% | 100% | 100% | 80 to 100% | – | – | –
CC(=O)Nc1ccnc(-n2ncnc2[C@H](C)NC(=O)c2cc(Cl)cc(OC(F)(F)F)c2)c1 [II-22] | 100% | 100% | 80% | 100% | – | 100% | – | 83% | 80 to 100% | – | 80 to 100% | –
CCN(C)C(=O)c1ccc(-n2ncnc2[C@H](C)NC(=O)c2cc(Cl)cc(C(F)(F)F)c2)nc1 [II-27] | 100% | 100% | 100% | 100% | – | 100% | 83% | 83% | – | 100% | – | –
C[C@H](NC(=O)c1cc(C(F)(F)F)cc(C(F)(F)F)c1)c1ncnn1-c1ccc(C(=O)NC2CC2)cn1 [II-37] | 100% | 100% | 100% | 100% | 100% | 100% | 100% | 100% | – | 100% | – | 90%
C[C@H](NC(=O)c1cc(C(F)(F)F)cc(C(F)(F)F)c1)c1ncnn1-c1ccc(C(=O)N(C)C2CC2)cn1 [II-38, 6-(5-{(1S)-1-[3,5-bis(trifluoromethyl)benzamido]ethyl}-1H-1,2,4-triazol-1-yl)-N-cyclopropyl-N-methylnicotinamide] | 100% | 100% | 100% | 100% | 100% | 100% | 100% | 100% | – | 100% | – | 100%
C[C@H](NC(=O)c1cc(C(F)(F)F)cc(C(F)(F)F)c1)c1ncnn1-c1ncc(Br)s1 [II-41] | 100% | 100% | 100% | – | 100% | 100% | 100% | – | 80 to 100% | – | 80 to 100% | 90%
C[C@H](NC(=O)c1cc(Cl)cc(C(F)(F)F)c1)c1ncnn1-c1cc(-n2cncn2)ccn1 [II-43] | 100% | 100% | 100% | 100% | 100% | 100% | 100% | 100% | 80 to 100% | – | – | –
Cc1nc([C@H](C)NC(=O)c2cc(Cl)cc(Br)c2)n(-c2ccc(C#N)cn2)n1 [II-50] | 100% | 100% | 100% | 100% | 100% | – | 100% | – | 80 to 100% | – | 80 to 100% | –
Cc1nc([C@H](C)NC(=O)c2cc(Br)cc(Br)c2)n(-c2ccc(C#N)cn2)n1 [II-52] | 100% | 100% | 100% | 100% | 100% | – | 100% | – | 80 to 100% | – | 80 to 100% | –
Cc1nc([C@H](C)NC(=O)c2cc(Br)cc(C#N)c2)n(-c2ccc(C#N)cn2)n1 [II-54] | 100% | 100% | 100% | 100% | 100% | – | 100% | – | 80 to 100% | – | 80 to 100% | –
C[C@H](NC(=O)c1cc(Br)cc(C(F)F)c1)c1ncnn1-c1ccc(C#N)cn1 [II-83] | 100% | – | 90% | 100% | 100% | – | 100% | – | 80 to 100% | – | 80 to 100% | –
Cc1nc([C@H](C)NC(=O)c2cc(C(F)(F)F)cc(C(F)(F)F)c2)n(-c2ccc(C(=O)N(C)C3CC3)cn2)n1 [II-96] | 100% | – | 100% | 100% | 100% | – | 100% | – | 80 to 100% | – | 80 to 100% | –
